Experimental data as given in the NIST ThermoML archive (doi:10.1016/j.jct.2011.08.016).

Conditions: Liquid, Vibrating tube method

CCCCCCC [heptane]
mass density [kg/m3]
Conditions	313.18 K	333.04 K	353.06 K
1000 kPa	668.09	650.66	–
1010 kPa	–	–	632.6
2000 kPa	669.03	651.8	634.02
3000 kPa	669.97	652.94	635.41
4000 kPa	670.93	654.08	636.78
5000 kPa	–	655.23	638.15
5010 kPa	671.9	–	–
6000 kPa	672.87	656.38	639.47
7000 kPa	673.86	657.54	640.8
8000 kPa	674.87	658.65	642.1
9000 kPa	675.87	659.81	–
9010 kPa	–	–	643.4
10000 kPa	676.86	660.92	644.66
11000 kPa	677.85	662.03	645.92
12000 kPa	678.83	663.1	647.13
13000 kPa	679.81	664.2	648.37
14000 kPa	680.76	665.25	649.56
15000 kPa	681.7	666.31	650.72
16000 kPa	682.62	667.33	651.88
17000 kPa	683.53	668.33	653
18000 kPa	684.41	–	–
18030 kPa	–	669.34	654.12
19000 kPa	685.26	670.26	655.16
20000 kPa	686.11	671.2	656.22
21000 kPa	686.92	–	657.27
22000 kPa	687.67	673.01	658.25
23000 kPa	688.42	673.86	659.24
23910 kPa	689.07	–	–
24000 kPa	–	674.7	660.2
25000 kPa	689.85	675.52	661.14
